Values after ≈ are worked out from the molar mass of the structure shown.

This passage reports dose/solubility ratio, solubility and contact angle results from patent US9326945B2, “Apixaban formulations” (Bristol-Myers Squibb Company, priority 2010, dated 2016).

A short description of data set [1]: Aqueous solubility of apixaban. In kind it is physicochemical.
A short description of data set [2]: Contact angle of apixaban drug substance with water. In kind it is physicochemical.

By solubility is commonly meant how much of the substance goes into solution per volume. High values mean much dissolved substance, low ones little dissolved substance. Take `COc1ccc(-n2nc(C(N)=O)c3c2C(=O)N(c2ccc(N4CCCCC4=O)cc2)CC3)cc1` [apixaban, 4,5,6,7-tetrahydro-1-(4-methoxyphenyl)-7-oxo-6-[4-(2-oxo-1-piperidinyl)phenyl]-1H-pyrazolo[3,4-c]pyridine-3-carboxamide]: in data set [1] (10 mg apixaban dose), the dose/solubility ratio worked out at 250 mL. This compound showed a solubility in data set [1] (aqueous medium, at all physiological pH) of 40 µg/mL (≈ 87.1 µM). Moreover, in data set [2], the contact angle stood at 54 °.
